Patent publication US10975056B2 (GlaxoSmithKline Intellectual Property Development Limited, priority 2016, dated 2021)
Several values for one entry are separate records, joined by “and”; a condition that tells them apart may be missing. Identical values can stand only once. Counter-ions that a name gives are not always drawn. Like-named read-outs stand apart in the source and are kept apart here.

How the values were obtained:
[1] = target: DNMT1 (Homo sapiens, UniProt P26358); assay: DNMT1 biochemical activity, breaklight assay and/or SPA assay
DNMT1, sequence (P26358 whole entry, looked up): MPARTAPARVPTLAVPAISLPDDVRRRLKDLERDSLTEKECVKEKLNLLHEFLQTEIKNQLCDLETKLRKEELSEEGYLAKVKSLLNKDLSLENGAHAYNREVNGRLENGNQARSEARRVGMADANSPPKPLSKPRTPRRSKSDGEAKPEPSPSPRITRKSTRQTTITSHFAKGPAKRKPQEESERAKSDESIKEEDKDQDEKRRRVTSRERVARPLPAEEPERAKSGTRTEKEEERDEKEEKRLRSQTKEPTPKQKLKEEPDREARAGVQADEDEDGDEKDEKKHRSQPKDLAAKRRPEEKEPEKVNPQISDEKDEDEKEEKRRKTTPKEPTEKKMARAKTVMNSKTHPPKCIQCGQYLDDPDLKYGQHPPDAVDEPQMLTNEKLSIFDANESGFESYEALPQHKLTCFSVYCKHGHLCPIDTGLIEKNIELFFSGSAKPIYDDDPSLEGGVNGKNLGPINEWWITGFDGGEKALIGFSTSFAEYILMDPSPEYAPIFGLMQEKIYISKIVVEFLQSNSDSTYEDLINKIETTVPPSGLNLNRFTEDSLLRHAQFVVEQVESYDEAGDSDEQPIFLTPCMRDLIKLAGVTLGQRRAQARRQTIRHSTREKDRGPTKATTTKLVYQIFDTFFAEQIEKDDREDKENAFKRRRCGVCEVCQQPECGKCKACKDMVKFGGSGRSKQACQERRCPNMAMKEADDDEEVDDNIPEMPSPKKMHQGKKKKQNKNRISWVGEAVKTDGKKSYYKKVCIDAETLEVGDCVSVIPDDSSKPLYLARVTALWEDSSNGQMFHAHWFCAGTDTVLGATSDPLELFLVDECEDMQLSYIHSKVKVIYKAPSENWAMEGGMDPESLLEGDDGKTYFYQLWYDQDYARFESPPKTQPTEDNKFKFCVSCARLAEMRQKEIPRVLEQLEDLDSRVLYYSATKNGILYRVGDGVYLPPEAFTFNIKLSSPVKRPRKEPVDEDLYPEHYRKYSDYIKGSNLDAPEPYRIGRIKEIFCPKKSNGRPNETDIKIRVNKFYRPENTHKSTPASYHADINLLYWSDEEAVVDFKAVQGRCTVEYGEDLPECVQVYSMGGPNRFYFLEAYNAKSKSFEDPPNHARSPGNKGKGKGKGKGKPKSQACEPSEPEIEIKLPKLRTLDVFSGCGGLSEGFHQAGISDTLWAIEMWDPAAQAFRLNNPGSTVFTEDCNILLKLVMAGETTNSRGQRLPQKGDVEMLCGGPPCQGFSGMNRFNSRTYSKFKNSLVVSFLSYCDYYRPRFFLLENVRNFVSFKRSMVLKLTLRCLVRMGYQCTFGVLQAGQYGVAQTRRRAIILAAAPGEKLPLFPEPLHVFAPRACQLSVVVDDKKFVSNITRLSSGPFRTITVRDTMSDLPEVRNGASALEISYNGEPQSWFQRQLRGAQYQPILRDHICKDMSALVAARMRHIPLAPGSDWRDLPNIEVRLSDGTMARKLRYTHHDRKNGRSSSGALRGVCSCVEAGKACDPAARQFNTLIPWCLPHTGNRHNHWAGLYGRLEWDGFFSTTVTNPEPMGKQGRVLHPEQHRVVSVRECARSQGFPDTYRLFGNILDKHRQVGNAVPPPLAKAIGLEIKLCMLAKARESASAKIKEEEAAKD

[2] = test system: erythroid progenitor cells (EPCs); assay: Fetal hemoglobin (HbF) ELISA in day 7 erythroid progenitor cells; format: cell-based, human; conditions: Homo sapiens, Erythroid progenitor cell, HbF ELISA, day 7 EPCs, 5 days; read-out: EPC ELISA (pEC50 category) (converted);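 further: for fetal hemoglobin induction normalized to vehicle-treated cells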
How it was run: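 Day 7 EPCs from human bone marrow CD34+ cells were plated at 1,000 cells/well in media with 3 U/mL rhEPO. They were exposed to a 22-point dilution ([…]) for 5 days at 37 °C. Lysate HbF was measured by sandwich ELISA (OD450) and normalized to DMSO control wells.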

[3] = binned activity in either the breaklight or the SPA assay
[4] = binned activity in either the breaklight or the SPA assay, read-out: DNMT1 BioChemical (pIC50 category) (converted)
[5] = breaklight assay and/or SPA assay, repeated experimental runs, read-out: average pIC50 against DNMT1 (converted)

| SMILES | DNMT1 BioChemical (pIC50 category) [1, 3] | EC50 [2] [nM] | IC50 [1, 4] [nM] | IC50 [1, 5] |
| --- | --- | --- | --- | --- |
| CCc1c(C#N)c(SC(C(N)=O)c2ccccc2)nc(N(C)CCN2[C@@H](C)CC[C@@H]2C)c1C#N (stereo partly drawn) [Example 490, 2-((3,5-dicyano-6-((2-((2S,5S)-2,5-dimethylpyrrolidin-1-yl)ethyl)(methyl)amino)-4-ethylpyridin-2-yl)thio)-2-phenylacetamide] | D (Category D: ≥6.5) | 316 to 1000 | – | – |
| CCc1c(C#N)c(SC(C(N)=O)c2ccc(F)cc2)nc(N2CCC[C@H](CN)C2)c1C#N (stereo partly drawn) [Example 593, 2-((6-((R)-3-(aminomethyl)piperidin-1-yl)-3,5-dicyano-4-ethylpyridin-2-yl)thio)-2-(4-fluorophenyl)acetamide] | – | < 316 | < 316 | – |
| CCc1c(C#N)c(SCc2ccc(CNC(=O)[C@@H](C)N)cc2)nc(N2CCCN(C)CC2)c1C#N [Example 98, (R)-2-Amino-N-(4-(((3,5-dicyano-4-ethyl-6-(4-methyl-1,4-diazepan-1-yl)pyridin-2-yl)thio)methyl)benzyl)propanamide] | D (Category D: ≥6.5) | > 31600 | – | – |
| CCc1c(C#N)c(SC(C(N)=O)c2ccccc2)nc(N2CCC3(CCCN(CC4CC4)C3)CC2)c1C#N (stereo not drawn) [Example 119, 2-((3,5-Dicyano-6-(2-(cyclopropylmethyl)-2,9-diazaspiro[5.5]undecan-9-yl)-4-ethylpyridin-2-yl)thio)-2-phenylacetamide hydrochloride] | – | < 316 | 316 to 1000 | 316 to 1000 nM and 398 nM |
| CCc1c(C#N)c(SC(C(N)=O)c2ccccc2)nc(N2CC(COC(=O)[C@@H](N)C(C)C)C2)c1C#N (stereo partly drawn) [Example 277] | D (Category D: ≥6.5) | 1000 to 31600 | – | – |
| CCc1c(C#N)c(SCc2ccc(CC(=O)NCCO)cc2)nc(N(C)C)c1C#N [Example 291, 2-(4-(((3,5-Dicyano-6-(dimethylamino)-4-ethylpyridin-2-yl)thio)methyl)phenyl)-N-(2-hydroxyethyl)acetamide] | – | 1000 to 31600 | 316 to 1000 | – |
| N#Cc1c(SC(C(N)=O)c2ccccc2)nc(N2CCC(O)(CN)CC2)c(C#N)c1C1CC1 (stereo not drawn) [Example 23] | D (Category D: ≥6.5) | 1000 to 31600 | – | – |
| CCc1c(C#N)c(SCc2ccc(S(N)(=O)=O)cc2)nc(N2CCC(N)CC2)c1C#N [Example 345, 4-(((6-(4-Aminopiperidin-1-yl)-3,5-dicyano-4-ethylpyridin-2-yl)thio)methyl) benzenesulfonamide] | D (Category D: ≥6.5) | 1000 to 31600 | – | – |
| CCc1c(C#N)c(SCc2ccc(N)cc2)nc(N2CCCN(C)CC2)c1C#N [Example 297, 2-((4-Aminobenzyl)thio)-4-ethyl-6-(4-methyl-1,4-diazepan-1-yl)pyridine-3,5-dicarbonitrile] | – | > 31600 | 316 to 1000 | – |
| CCc1c(C#N)c(SC(C(N)=O)c2ccccc2)nc(N(C)CCN2CC[C@H](O)C2)c1C#N (stereo partly drawn) [Example 486, 2-(3,5-dicyano-4-ethyl-6-((2-((S)-3-hydroxypyrrolidin-1-yl)ethyl)(methyl)amino)pyridin-2-ylthio)-2-phenylacetamide] | D (Category D: ≥6.5) | < 316 | – | – |
| CCc1c(C#N)c(SC(C(N)=O)c2ccccc2)nc(N2CC(OC)C2)c1C#N (stereo not drawn) [Example 54, 2-((3,5-Dicyano-4-ethyl-6-(3-methoxyazetidin-1-yl)pyridin-2-yl)thio)-2-phenylacetamide] | – | 1000 to 31600 | 316 to 1000 | – |
| CCc1c(C#N)c(SC(C(N)=O)c2ccccc2)nc(N2CCC(=O)N(C)CC2)c1C#N (stereo not drawn) [Example 111, 2-{[3,5-Dicyano-4-ethyl-6-(4-methyl-5-oxo-1,4-diazepan-1-yl)pyridin-2-yl]sulfanyl}-2-phenylacetamide] | – | < 316 | 316 to 1000 | – |
| CCc1c(C#N)c(SC(C(N)=O)c2ccccc2)nc(N2CCN(Cc3cnsc3)CC2)c1C#N (stereo not drawn) [Example 197, 2-((3,5-Dicyano-4-ethyl-6-(4-(isothiazol-4-ylmethyl)piperazin-1-yl)pyridin-2-yl)thio)-2-phenylacetamide] | – | 316 to 1000 | 316 to 1000 | – |
| CCc1c(C#N)c(SC(C(N)=O)c2ccccc2)nc(N(C)CCN2CC[C@@H](O)C2)c1C#N (stereo partly drawn) [Example 494, 2-(3,5-dicyano-4-ethyl-6-((2-((R)-3-hydroxypyrrolidin-1-yl)ethyl)(methyl)amino)pyridin-2-ylthio)-2-phenylacetamide] | D (Category D: ≥6.5) | < 316 | – | – |
| CCc1c(C#N)c(SC(C(N)=O)c2ccccc2)nc(N(C)CC(=O)N2CC(O)C2)c1C#N (stereo not drawn) [Example 633, 2-((3,5-dicyano-4-ethyl-6-((2-(3-hydroxyazetidin-1-yl)-2-oxoethyl)(methyl)amino)pyridin-2-yl)thio)-2-phenylacetamide] | D (Category D: ≥6.5) | < 316 | – | – |
| CCc1c(C#N)c(SC(C(N)=O)c2ccccc2)nc(N(C)CCn2cnnc2)c1C#N (stereo not drawn) [Example 352, 2-((6-((2-(4H-1,2,4-Triazol-4-yl)ethyl)(methyl)amino)-3,5-dicyano-4-ethylpyridin-2-yl)thio)-2-phenylacetamide] | – | 1000 to 31600 | 316 to 1000 | – |
| CCc1c(C#N)c(SCc2ccc(CNC(C)=O)cc2)nc(N(C)Cc2nnc[nH]2)c1C#N [Example 349, N-(4-(((6-(((4H-1,2,4-Triazol-3-yl)methyl)(methyl)amino)-3,5-dicyano-4-ethylpyridin-2-yl)thio)methyl)benzyl)acetamide] | – | 1000 to 31600 | 316 to 1000 | – |
| CCc1c(C#N)c(SC(C(N)=O)c2ccccc2)nc(N2CCN(Cc3cnoc3)CC2)c1C#N (stereo not drawn) [Example 185] | – | 316 to 1000 | 316 to 1000 | – |
| CCc1c(C#N)c(SC(C(N)=O)c2ccccc2)nc(N2CC(NC(=O)CO)C2)c1C#N (stereo not drawn) [Example 288, N-(1-(6-((2-Amino-2-oxo-1-phenylethyl)thio)-3,5-dicyano-4-ethylpyridin-2-yl)azetidin-3-yl)-2-hydroxyacetamide] | D (Category D: ≥6.5) | 1000 to 31600 | – | – |
| N#Cc1c(SC(C(N)=O)c2ccccc2)nc(N2CCC(O)C2)c(C#N)c1C1CC1 (stereo not drawn) [Example 369, 2-((3,5-Dicyano-4-cyclopropyl-6-(3-hydroxypyrrolidin-1-yl)pyridin-2-yl)thio)-2-phenylacetamide] | D (Category D: ≥6.5) | 1000 to 31600 | – | – |
| COc1c(C#N)c(SC(C(N)=O)c2ccccc2)nc(N2CCC(N)CC2)c1C#N (stereo not drawn) [Example 693, 2-((6-(4-aminopiperidin-1-yl)-3,5-dicyano-4-methoxypyridin-2-yl)thio)-2-phenylacetamide 2,2,2-trifluoroacetate] | D (Category D: ≥6.5) | < 316 | – | – |
| CCc1c(C#N)c(SC(C(N)=O)c2ccccc2)nc(N2CCC(F)(F)CC2)c1C#N (stereo not drawn) [Example 133, 2-((3,5-Dicyano-6-(4,4-difluoropiperidin-1-yl)-4-ethylpyridin-2-yl)thio)-2-phenylacetamide] | – | 1000 to 31600 | 1000 to 31600 | ≥ 1000 nM |
| CCc1c(C#N)c(SCc2ccc(N(C)S(C)(=O)=O)cc2)nc(N2CCC(N3CCCC3)CC2)c1C#N [Example 582, N-(4-(((3,5-dicyano-4-ethyl-6-(4-(pyrrolidin-1-yl)piperidin-1-yl)pyridin-2-yl)thio)methyl)phenyl)-N-methylmethanesulfonamide] | D (Category D: ≥6.5) | < 316 | – | – |
| CCc1c(C#N)c(SC(C(N)=O)c2ccccc2)nc(N2CCC(NCc3ccc(OC)nc3)CC2)c1C#N (stereo not drawn) [Example 467, 2-((3,5-dicyano-4-ethyl-6-(4-(((6-methoxypyridin-3-yl)methyl)amino)piperidin-1-yl)pyridin-2-yl)thio)-2-phenylacetamide] | D (Category D: ≥6.5) | < 316 | – | – |
| CCc1c(C#N)c(SC(C(N)=O)c2ccccc2)nc(N2CCC(N(C)CC(C)(C)C)CC2)c1C#N (stereo not drawn) [Example 551, 2-((3,5-dicyano-4-ethyl-6-(4-(methyl(neopentyl)amino)piperidin-1-yl)pyridin-2-yl)thio)-2-phenylacetamide] | D (Category D: ≥6.5) | < 316 | – | – |
| C[C@@H](N)C(=O)NC1CCN(c2nc(SC(C(N)=O)c3ccccc3)c(C#N)c(C3CC3)c2C#N)CC1 (stereo partly drawn) [Example 372, (2R)-2-Amino-N-(1-(6-((2-amino-2-oxo-1-phenylethyl)thio)-3,5-dicyano-4-cyclopropylpyridin-2-yl)piperidin-4-yl)propanamide] | D (Category D: ≥6.5) | 316 to 1000 | – | – |
| CCc1c(C#N)c(SC(C(N)=O)c2ccccc2)nc(N(C)CC(=O)N2CC[C@H](O)C2)c1C#N (stereo partly drawn) [Example 616, 2-((3,5-dicyano-4-ethyl-6-((2-((S)-3-hydroxypyrrolidin-1-yl)-2-oxoethyl)(methyl)amino)pyridin-2-yl)thio)-2-phenylacetamide] | D (Category D: ≥6.5) | < 316 | – | – |
| CCc1c(C#N)c(SCc2ccc(CNC(C)=O)cc2)nc(SC(C(N)=O)c2ccccc2)c1C#N (stereo not drawn) [Example 336, 2-(6-(4-(Acetamidomethyl)benzylthio)-3,5-dicyano-4-ethylpyridin-2-ylthio)-2-phenylacetamide] | – | 1000 to 31600 | 316 to 1000 | – |
| CCc1c(C#N)c(SC(C(N)=O)c2ccccc2)nc(N2CCC[C@@H](NC)C2)c1C#N (stereo partly drawn) [Example 636, 2-((3,5-dicyano-4-ethyl-6-((R)-3-(methylamino)piperidin-1-yl)pyridin-2-yl)thio)-2-phenylacetamide] | D (Category D: ≥6.5) | < 316 | – | – |
